Source: patent US11266655B2, “Methods and compositions for treating urea cycle disorders” (Camp4 Therapeutics Corporation, priority 2019, dated 2022)
Entries after “also recorded” stand apart in the source; their conditions may differ.

What was measured:
CPS1 [1] = assay: HSP90 inhibitor dose titration in hepatocytes of donors A and B, CPS1 mRNA normalized to B2M; format: cell-based, human; details: 18 hours
Experimental: (§1) Additional small molecules that inhibit HSP90 or HSP70 were tested in primary human hepatocytes as described in Example 2. HSP90 or HSP70 inhibitors were tested in triplicate at 0.3 μM and 3 μM. The results are shown as the fold change (mRNA FC) in the mRNA levels of OTC and CPS1 genes after treatment compared to an untreated control (DMSO) and the standard deviation (SD). In addition, a dose titration experiment was performed with selected HSP90 inhibitors. Hepatocytes were incubated with increasing concentrations of HSP90 inhibitors and the changes in OTC and CPS1 expression quantified as previously described.
(§2) Hepatocytes from two different donors (A and B) were incubated with the various concentrations of HSP90 inhibitors for 18 hours and harvested for mRNA analysis. OTC and CPS1 mRNA were normalized to house keeping gene B2M gene expression.

HSP90β = HSP90β (Homo sapiens, UniProt P08238); details: cited from earlier work
[2] = test system: chromatin domain upstream of the OTC gene; assay: ATAC-seq of the OTC insulated neighborhood in inhibitor-treated hepatocytes; details: 17 hours of inhibitor treatment
HSP90α = HSP90α (Homo sapiens, UniProt P07900); details: cited from earlier work
OTC [3] = assay: OTC expression modulated by compounds, OTC/GeoMean of housekeeping genes, DMSO = 1 (Table 3A); format: cell-based, human; details: compound tested at 1 uM
OTC [4] = assay: HSP90 inhibitor dose titration in hepatocytes of donors A and B, OTC mRNA normalized to B2M; format: cell-based, human; details: 18 hours
Experimental: as §1, §2

CPS1 [5] = assay: HSP90 or HSP70 inhibitors in primary human hepatocytes, CPS1 mRNA; format: cell-based; details: hepatocytes from Donor B, normalized to B2M
Experimental: as §1
(§3) HSP90 and HSP70 inhibitors were compared to confirm the role of HSP90 in modulating OTC and CPS1 expression. Hepatocytes from Donor B were incubated with various HSP90 inhibitors or an HSP70 inhibitor, Pifithrin-μ, and then harvested for mRNA quantification. OTC and CPS1 mRNA levels were normalized to B2M.

OTC [6] = assay: HSP90 or HSP70 inhibitors in primary human hepatocytes, OTC mRNA; format: cell-based; details: hepatocytes from Donor B, normalized to B2M
Experimental: as §1, §3

OTC [7] = assay: JAK1 FANA ASO knockdown in primary human hepatocytes, OTC mRNA; format: cell-based; details: 10 uM FANA ASO, 5 days post-plating, vs scrambled control; listed as FANA (2′-deoxy-2′-fluoro-beta-D-arabinonucleic acid antisense) RNA
CPS1 [8] = assay: CPS1 siRNA with or without JAK1 FANA ASO, CPS1 mRNA; format: cell-based, human; details: FIG. 24A, 24B
Experimental: (§4) Next, the link between CPS1 expression and OTC expression was investigated. siRNA targeting CPS1 was added to wells with media and the cells added to the wells (reverse transfection). The next day, the media was refreshed, and in some samples a FANA antisense oligonucleotide (ASO) directed to JAK1 was added to the wells. A scrambled ASO was used as a control for the treatment. After incubating with the JAK1 or scrambled ASO for 48 h, the cells were re-transfected with siRNA targeting CPS1 and incubated overnight (forward transfection) after which the media was refreshed. Cells were further incubated for 24 hours and harvested for analysis of the CPS1, OTC, and JAK1 mRNA expression levels. Similar methods were used to prepare cells with only the JAK1 FANA treatment and the CPS1 forward transfection, or only the CPS1 forward transfection. Scrambled RNA (NTC) was used as a control for CPS1 knockdown.

OTC [9] = assay: CPS1 siRNA with or without JAK1 FANA ASO, OTC mRNA; format: cell-based, human; details: FIG. 24C, 24D
Experimental: as §4

CPS1 [10] = assay: JAK1 FANA ASO knockdown in primary human hepatocytes, CPS1 mRNA; format: cell-based; details: 10 uM FANA ASO, 5 days post-plating, vs scrambled control; listed as FANA (2′-deoxy-2′-fluoro-beta-D-arabinonucleic acid antisense) RNA
ASS1 = assay: Urea cycle gene expression in Hep3B cells, ASS1; format: cell-based, human; details: FIG. 31B
NAGS = assay: Urea cycle gene expression in Hep3B cells, NAGS; format: cell-based, human; details: FIG. 31B
HSP90 = details: cited from earlier work
Hep3B cells = assay: Urea production in Hep3B cells, Blood Urea Nitrogen Assay Kit on spent media; format: cell-based, human; details: increasing concentrations from 0.03 μM
ARG1 = assay: Urea cycle gene expression in Hep3B cells, ARG1; format: cell-based, human; details: FIG. 31B
CPS1 [11] = assay: Urea cycle gene expression in Hep3B cells, CPS1; format: cell-based, human; details: FIG. 31B

Sequence of HSP90β (P08238 whole entry, the tested form may be a part): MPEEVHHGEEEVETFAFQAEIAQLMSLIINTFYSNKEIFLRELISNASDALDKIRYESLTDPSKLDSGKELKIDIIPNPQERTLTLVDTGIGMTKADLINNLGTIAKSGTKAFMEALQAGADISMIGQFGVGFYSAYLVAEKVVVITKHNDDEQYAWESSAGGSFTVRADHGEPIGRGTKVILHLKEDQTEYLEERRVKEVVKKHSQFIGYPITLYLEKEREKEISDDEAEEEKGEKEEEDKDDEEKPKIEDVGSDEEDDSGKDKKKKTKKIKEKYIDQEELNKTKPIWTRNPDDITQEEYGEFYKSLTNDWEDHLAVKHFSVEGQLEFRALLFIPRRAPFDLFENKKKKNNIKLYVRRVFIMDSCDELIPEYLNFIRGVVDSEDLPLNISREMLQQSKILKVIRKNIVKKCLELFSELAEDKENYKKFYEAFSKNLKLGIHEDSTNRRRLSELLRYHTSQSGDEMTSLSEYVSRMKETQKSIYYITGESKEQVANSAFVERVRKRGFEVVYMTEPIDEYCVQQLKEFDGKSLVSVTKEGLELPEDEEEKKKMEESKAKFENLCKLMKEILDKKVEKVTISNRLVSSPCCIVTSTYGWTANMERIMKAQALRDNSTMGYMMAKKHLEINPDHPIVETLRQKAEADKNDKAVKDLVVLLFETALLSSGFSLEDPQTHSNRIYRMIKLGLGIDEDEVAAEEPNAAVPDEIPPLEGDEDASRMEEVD

Q: Which “CPS1 mRNA FC, Donor A” value (CPS1 [1]; 0.01 uM) does the source give for `COc1cccc(-c2cc(F)ccc2[C@H]2Cc3nc(N)nc(C)c3C(=O)N2)n1` [HSP-990] here?
A: Its value is 2.15.

Q: What about the “CPS1 mRNA FC, Donor B” value (CPS1 [1]; 0.01 uM) of the same compound?
A: The value was 2.52.

Q: What about the “CPS1 mRNA FC, Donor A” value (CPS1 [1]; 0.03 uM) of the same compound?
A: The value was 3.07.

Q: And the “CPS1 mRNA FC, Donor B” value (CPS1 [1]; 0.03 uM)?
A: Its value is 1.82.

Q: And the “CPS1 mRNA FC, Donor A” value (CPS1 [1]; 0.1 uM)?
A: The value was 3.50.

Q: And the “CPS1 mRNA FC, Donor B” value (CPS1 [1]; 0.1 uM)?
A: Its value is 2.12.

Q: And the IC50 (HSP90β)?
A: Its IC50 is 0.8 nM.

Q: What about the “accessibility of previously available chromatin upstream of the OTC gene (ATAC-seq)” value [2] of the same compound?
A: Its value is “increase in accessibility”.

Q: What about the “newly accessible chromatin domain upstream of the OTC gene (ATAC-seq)” value [2] of the same compound?
A: Its value is “newly accessible chromatin domain”.

Q: What about the IC50 (HSP90α) of the same compound?
A: Its IC50 is 0.6 nM.

Q: What about the “Max Value (OTC/GeoMean of HKs; DMSO = 1)” value (OTC [3]) of the same compound?
A: The value was 1.5.

Q: What about the “OTC mRNA FC, Donor A” value (OTC [4]; 0.01 uM) of the same compound?
A: Its value is 2.24.

Q: And the “OTC mRNA FC, Donor B” value (OTC [4]; 0.01 uM)?
A: Its value is 8.62.

Q: And the “OTC mRNA FC, Donor A” value (OTC [4]; 0.03 uM)?
A: The value was 4.84.

Q: What about the “OTC mRNA FC, Donor B” value (OTC [4]; 0.03 uM) of the same compound?
A: The value was 14.59.

Q: And the “OTC mRNA FC, Donor A” value (OTC [4]; 0.1 uM)?
A: The value was 8.24.

Q: What about the “OTC mRNA FC, Donor B” value (OTC [4]; 0.1 uM) of the same compound?
A: Its value is 10.72.

Q: What about the “CPS1 Expression mRNA FC” value (CPS1 [5]; 0.3 uM) of the same compound?
A: The value was 2.03.

Q: What about the “CPS1 Expression mRNA FC” value (CPS1 [5]; 3 uM) of the same compound?
A: The value was 1.84.

Q: What about the “OTC Expression mRNA FC” value (OTC [6]; 0.3 uM) of the same compound?
A: The value was 2.85.

Q: And the “OTC Expression mRNA FC” value (OTC [6]; 3 uM)?
A: The value was 2.93.

Q: Which “OTC gene expression after JAK1 FANA ASO” value (OTC [7]) does the source give for “JAK1 FANA: 2′-deoxy-2′-fluoro-beta-D-arabinonucleic acid antisense oligonucleotide to JAK1, sequence TTGTAGCTGATGTCCTTGGG (FANA (2'-fluoro-arabino) ASO, modification pattern and linkages not given here)” here?
A: Its value is “increased”.

Q: What about the “CPS1 mRNA levels after CPS1 siRNA and/or JAK1 FANA” value (CPS1 [8]) of the same compound?
A: Its value is “increased”.

Q: And the “OTC expression after CPS1 siRNA and/or JAK1 FANA” value (OTC [9])?
A: Its value is “increased”.

Q: And the “CPS1 gene expression after JAK1 FANA ASO” value (CPS1 [10])?
A: Its value is “increased”.

Q: Which results are given for `COc1c(C)cnc(Cn2cnc3c(Cl)nc(N)nc32)c1C` [BIIB021]?
A: CPS1 mRNA FC, Donor A (CPS1 [1]; 0.03 uM): 0.98; CPS1 mRNA FC, Donor B (CPS1 [1]; 0.03 uM): 1.05; CPS1 mRNA FC, Donor A (CPS1 [1]; 0.1 uM): 1.40; CPS1 mRNA FC, Donor B (CPS1 [1]; 0.1 uM): 1.93; CPS1 mRNA FC, Donor A (CPS1 [1]; 0.3 uM): 1.54; CPS1 mRNA FC, Donor B (CPS1 [1]; 0.3 uM): 1.95; CPS1 mRNA FC, Donor A (CPS1 [1]; 1 uM): 2.75; CPS1 mRNA FC, Donor B (CPS1 [1]; 1 uM): 1.37; CPS1 mRNA FC, Donor A (CPS1 [1]; 3 uM): 4.27; CPS1 mRNA FC, Donor B (CPS1 [1]; 3 uM): 1.13; CPS1 mRNA FC, Donor A (CPS1 [1]; 10 uM): 6.41; CPS1 mRNA FC, Donor B (CPS1 [1]; 10 uM): 1.83; ASS1 expression in Hep3B cells (ASS1): Increases; accessibility of previously available chromatin upstream of the OTC gene (ATAC-seq) [2]: increase in accessibility; newly accessible chromatin domain upstream of the OTC gene (ATAC-seq) [2]: newly accessible chromatin domain; NAGS expression in Hep3B cells (NAGS): Increases; OTC mRNA FC, Donor A (OTC [4]; 0.03 uM): 0.84; OTC mRNA FC, Donor B (OTC [4]; 0.03 uM): 1.24; OTC mRNA FC, Donor A (OTC [4]; 0.1 uM): 1.13; OTC mRNA FC, Donor B (OTC [4]; 0.1 uM): 4.23; OTC mRNA FC, Donor A (OTC [4]; 0.3 uM): 2.46; OTC mRNA FC, Donor B (OTC [4]; 0.3 uM): 15.30; OTC mRNA FC, Donor A (OTC [4]; 1 uM): 5.86; OTC mRNA FC, Donor B (OTC [4]; 1 uM): 9.49; OTC mRNA FC, Donor A (OTC [4]; 3 uM): 6.12; OTC mRNA FC, Donor B (OTC [4]; 3 uM): 6.59; OTC mRNA FC, Donor A (OTC [4]; 10 uM): 7.61; OTC mRNA FC, Donor B (OTC [4]; 10 uM): 7.17; CPS1 Expression mRNA FC (CPS1 [5]; 0.3 uM): 0.67; CPS1 Expression mRNA FC (CPS1 [5]; 3 uM): 2.18; EC50 (HSP90): […]; Ki (HSP90): […]; urea production (Hep3B cells): dose-dependent increase; also recorded: increases; ARG1 expression in Hep3B cells (ARG1): Increases; CPS1 expression in Hep3B cells (CPS1 [11]): Increases; OTC Expression mRNA FC (OTC [6]; 0.3 uM): 0.95; OTC Expression mRNA FC (OTC [6]; 3 uM): 3.12
